Assay results published in article PMC9022596, “Convergent Evolution of Antibiotic Tolerance in Patients with Persistent Methicillin-Resistant Staphylococcus aureus Bacteremia” (Infection and Immunity, 2022).

Tests used:
Assay in all cases: microbe, parasite or virus in culture
Parameters in all cases: Broth microdilution MIC in cation-adjusted MHB-Ca2+, growth inhibition per EUCAST reading
[1] = tested on: T1, Staphylococcus aureus PB0609; conditions: PB0609, 16 h
T1 construct: PB0609
Protocol: (§1) MICs were measured in cation-adjusted Mueller-Hinton broth (MHB) supplemented with 50 μg/mL CaCl2 (MHB-Ca^2+) via broth microdilution in 96-well plates with an inoculum of ∼5 × 10^5 CFU per mL. Antibiotic test concentrations ranged from 0.0625 μg/mL to 32 μg/mL by 2-fold dilutions. Plates were incubated at 37°C for 16 h without shaking, and results were interpreted in accordance with European Committee on Antimicrobial Susceptibility Testing reading guidelines ([72]). S. aureus ATCC 29213 was used as a quality-control strain. TCA cycle defects have been shown previously to cause antibiotic tolerance in laboratory strains of methicillin-sensitive S. aureus (MSSA) ([13], [16]). […] To test this hypothesis, we complemented three of the clinical isolates harboring loss-of-function citZ mutations with either wild-type citZ (pOS1-citZ) or empty vector (pOS1) and then measured bacterial survival through time after exposure to ceftaroline, daptomycin, vancomycin, or the combination of daptomycin plus ceftaroline (Fig. 3). These antibiotics were chosen for their clinical relevance in the treatment of severe MRSA infection.

[2] = tested on: T2, Staphylococcus aureus PB0112; conditions: PB0112, 16 h
T2 construct: PB0112
Protocol: as §1

[3] = tested on: T3, Staphylococcus aureus PB0803; conditions: PB0803, 16 h
T3 construct: PB0803
Protocol: as §1

[4] = tested on: T4, Staphylococcus aureus PB0805; conditions: PB0805, 16 h
T4 construct: PB0805
Protocol: as §1

[5] = tested on: T5, Staphylococcus aureus PB0412; conditions: PB0412, 16 h
T5 construct: PB0412
Protocol: as §1

[6] = tested on: T6, Staphylococcus aureus PB0605; conditions: PB0605, 16 h
T6 construct: PB0605
Protocol: as §1

[7] = tested on: T7, Staphylococcus aureus PB1103; conditions: PB1103, 16 h
T7 construct: PB1103
Protocol: as §1

[8] = tested on: T8, Staphylococcus aureus PB0601; conditions: PB0601, 16 h
T8 construct: PB0601
Protocol: as §1

[9] = tested on: T9, Staphylococcus aureus PB1407; conditions: PB1407, 16 h
T9 construct: PB1407
Protocol: as §1

[10] = tested on: T10, Staphylococcus aureus PB1408; conditions: PB1408, 16 h
T10 construct: PB1408
Protocol: as §1

[11] = tested on: T11, Staphylococcus aureus PB0801; conditions: PB0801, 16 h
T11 construct: PB0801
Protocol: as §1

[12] = tested on: T12, Staphylococcus aureus PB1509; conditions: PB1509, 16 h
T12 construct: PB1509
Protocol: as §1

SMILES	MIC ([1]; replicate 1) [µg/mL]	MIC ([1]; replicate 2) [µg/mL]	MIC ([2]; replicate 1) [µg/mL]	MIC ([2]; replicate 2) [µg/mL]	MIC ([3]; replicate 1) [µg/mL]	MIC ([3]; replicate 2) [µg/mL]	MIC ([4]; replicate 1) [µg/mL]	MIC ([4]; replicate 2) [µg/mL]	MIC ([5]; replicate 1) [µg/mL]	MIC ([5]; replicate 2) [µg/mL]	MIC ([6]; replicate 1) [µg/mL]	MIC ([6]; replicate 2) [µg/mL]	MIC ([7]; replicate 1) [µg/mL]	MIC ([7]; replicate 2) [µg/mL]	MIC ([8]; replicate 1) [µg/mL]	MIC ([8]; replicate 2) [µg/mL]	MIC ([9]; replicate 1) [µg/mL]	MIC ([9]; replicate 2) [µg/mL]	MIC ([10]; replicate 1) [µg/mL]	MIC ([10]; replicate 2) [µg/mL]	also measured
CCO/N=C(\C(=O)N[C@@H]1C(=O)N2C(C(=O)[O-])=C(Sc3nc(-c4cc[n+](C)cc4)cs3)CS[C@H]12)c1nsc(N)n1 [Ceftaroline]	0.25	0.25	0.5	0.5	0.5	0.5	0.5	0.5	0.5	0.5	0.25	0.25	0.5	0.5	0.25	0.25	0.5	0.5	0.5	0.5	MIC ([11]; replicate 1): 0.5 µg/mL; MIC ([11]; replicate 2): 0.5 µg/mL; MIC ([12]; replicate 1): 0.5 µg/mL; MIC ([12]; replicate 2): 0.5 µg/mL
CCCCCCCCCC(=O)N[C@@H](Cc1c[nH]c2ccccc12)C(=O)N[C@H](CC(N)=O)C(=O)N[C@@H](CC(=O)O)C(=O)N[C@@H]1C(=O)NCC(=O)N[C@@H](CCCN)C(=O)N[C@@H](CC(=O)O)C(=O)N[C@H](C)C(=O)N[C@@H](CC(=O)O)C(=O)NCC(=O)N[C@H](CO)C(=O)N[C@@H]([C@H](C)CC(=O)O)C(=O)N[C@@H](CC(=O)c2ccccc2N)C(=O)O[C@@H]1C [Daptomycin]	1	1	1	1	2	2	1	1	2	2	1	2	1	1	1	1	2	2	2	2	MIC ([11]; replicate 1): 1 µg/mL; MIC ([11]; replicate 2): 1 µg/mL; MIC ([12]; replicate 1): 2 µg/mL; MIC ([12]; replicate 2): 2 µg/mL
CC(=O)NC[C@H]1CN(c2ccc(N3CCOCC3)c(F)c2)C(=O)O1 [Linezolid]	4	4	4	4	4	4	4	4	4	4	4	4	4	4	4	4	4	4	4	4	MIC ([11]; replicate 1): 4 µg/mL; MIC ([11]; replicate 2): 4 µg/mL; MIC ([12]; replicate 1): 4 µg/mL; MIC ([12]; replicate 2): 4 µg/mL
CN[C@H](CC(C)C)C(=O)N[C@H]1C(=O)N[C@@H](CC(N)=O)C(=O)N[C@H]2C(=O)N[C@H]3C(=O)N[C@H](C(=O)N[C@H](C(=O)O)c4cc(O)cc(O)c4-c4cc3ccc4O)[C@H](O)c3ccc(c(Cl)c3)Oc3cc2cc(c3O[C@@H]2O[C@H](CO)[C@@H](O)[C@H](O)[C@H]2O[C@H]2C[C@](C)(N)[C@H](O)[C@H](C)O2)Oc2ccc(cc2Cl)[C@H]1O [Vancomycin]	2	4	2	2	2	2	1	1	2	2	2	2	2	2	2	2	2	2	4	4	MIC ([11]; replicate 1): 2 µg/mL; MIC ([11]; replicate 2): 2 µg/mL; MIC ([12]; replicate 1): 2 µg/mL; MIC ([12]; replicate 2): 2 µg/mL
